Assay results as given in US6180388A, “Enzymes and micro organisms with amidase activity which hydrolyze polyamides” (Rhone-Poulenc Fibres et Polymeres S.A., priority 1995, dated 2001).

Assays:
[1] = system: Comamonas acidovorans N 12; assay: Enzymatic hydrolysis of PA 6.6 oligomers, activity of the wild-type microorganism; assay type: cell-based; conditions: 28° C., 10.5 mmol/l phosphate buffer pH 7.5
Excerpt: 2.2 ENZYMATIC HYDROLYSIS--MEASUREMENT OF ACTIVITY OF THE WILD-TYPE MICROORGANISM: […]

[2] = polyamide 66 labeled with carbon 14; cited from earlier work

NCCCCCCNC(=O)CCCCC(=O)NCCCCCCNC(=O)CCCCC(=O)O [ABAB]
hydrolysis ABAB → BAB + A ([1]; substrate 1.4 g/l): 410 mg of BAB/h.g of dry cells

O=C(O)CCCCC(=O)NCCCCCCNC(=O)CCCCC(=O)O [ABA]
hydrolysis ABA → AB + A ([1]; substrate 2.6 g/l): 215 mg of AB/h.g of dry cells

NCCCCCCNC(=O)CCCCC(=O)O [AB]
hydrolysis AB → A + B ([1]; substrate 1.4 g/l): 280 mg of A/h.g of dry cells

trypsin [reference compound]
degradation of polyamide 66 [2]: degrade polyamide 66 slightly

B1: papain: known enzyme of the prior art (protein, UniProt P00784 134-345, looked up)
Papain: IPEYVDWRQKGAVTPVKNQGSCGSCWAFSAVVTIEGIIKIRTGNLNEYSEQELLDCDRRSYGCNGGYPWSALQLVAQYGIHYRNTYPYEGVQRYCRSREKGPYAAKTDGVRQVQPYNEGALLYSIANQPVSVVLEAAGKDFQLYRGGIFVGPCGNKVDHAVAAVGYGPNYILIKNSWGTGWGENGYIRIKRGTGNSYGVCGLYTSSFYPVKN
degradation of polyamide 66 [2]: degrade polyamide 66 slightly
